From patent US11319331B2, “Probe for selective detection of hypochlorous acid (HOCl) under physiological condition, and related methods” (Council of Scientific & Industrial Research, priority 2017, dated 2022)

How the values were obtained:
[1] = S/N=3 where stated; cited from earlier work
[2] = Method: (§1) Unless and otherwise mentioned, 10 mM and pH 7.2 solution of aq. PBS buffer was used for all spectroscopic studies. All reactive Oxygen species and nitrogen species solutions of 1×10^-2 M were prepared in PBS having pH 7.2 and used with appropriate dilution. All luminescence measurements were done using λEx=550 nm with an emission slit width of 2/2 nm. For all biological studies, 0.6% DMSO in DMEM media was used.
The detection limit was calculated based on the fluorescence titration.

[3] = SF-1 10 μM, 2 mM HOCl, PBS-acetonitrile (9:1, v/v), pH 7.2, 37° C.
Method: Accordingly, all studies are carried out at physiological relevant pH […].
as §1

RAW 264.7 cells = experiment: MTT assay, in vitro cytotoxicity / cell viability; details: read-out: IC50 (MTT cell viability), treated 24 hours

| Molecule | detection limit for HOCl/HClO (literature) [1] [nM] | detection limit for HOCl ([2]; aq. PBS buffer-acetonitrile (9:1, v/v), 3 s method) [nM] | Detection Limit for HOCl (DL=K*Sb1/S, K=3) ([2]; slope 2.50×109, Sb1 3.59) [nM] | enhancement of luminescence intensity with increasing dose of HOCl ([2]; λEm Max 580 nm, λExt 540 nm) [fold] | time to completion of reaction with HOCl [3] [min] | IC50 (RAW 264.7 cells) [µM] |
| --- | --- | --- | --- | --- | --- | --- |
| CC1=CC(C)=[N+]2C1=C(CCc1[nH]c(C)cc1C)c1c(C)cc(C)n1[B-]2(F)F [BClO] | 0.56 |  |  |  |  |  |
| E)-4-(2-(5,5-difluoro-1,7,9-trimethyl-10-phenyl-5H-5λ^4,6λ^4-dipyrrolo[1,2-c:2′,1′-f][1,3,2]diazaborinin-3-yl)vinyl)benzene-1,2-diol [SF-1] |  | 4.3 | 4.3 | 20 | ≤ 15 | > 150 |
